Assay results taken from patent US9738634B2, “Heterocyclic amide compound and herbicide” (SYNGENTA PARTICIPATIONS AG, priority 2013, dated 2017).

Legend:
Type in all cases: in vivo
fig-leafed goosefoot [1] = assay: Test Example 3: weedkilling efficacy through soil treatment; M: fig-leafed goosefoot; details: treatment dosage 315 g/ha
Method in brief: (§1)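 Crop and weed responses were judged three weeks after a uniform surface spray of the water-diluted emulsion at the given g/ha rate. Seeds sat beneath about 1.5 cm of sterilized diluvial soil, and boxes stood in a greenhouse at 25 to 30° C.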

catchweed = assay: Test Example 4: weedkilling efficacy by foliar treatment; O: catchweed; details: treatment dosage 315 g/ha
Method in brief: (§2)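 Seeds are spot-sown into sterilized diluvial soil and covered with about 1.5 cm of soil. After 14 days' greenhouse growth at 25 to 30° C, plants are sprayed on stems and leaves with diluted emulsion at the stated g/ha rate, then scored at 3 weeks.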

oval-leafed pondweed [2] = assay: Test Example 1: weedkilling efficacy, preemergent weed treatment in the submerged state; C: oval-leafed pondweed; details: treatment dosage 252 g/ha
Method in brief: (§3)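 Emulsion diluted with water to the specified per-hectare dosage is applied onto flood water (4 cm) over alluvial soil on the sowing day, with barnyard grass, bulrush and pondweed seeded and rice (2.5-leaf) transplanted; plants grow at 25–30 °C and are rated at 3 weeks.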

oval-leafed pondweed [3] = assay: Test Example 2: weedkilling efficacy, growth period weed treatment in the submerged state; C: oval-leafed pondweed; details: treatment dosage 252 g/ha
Method in brief: (§4)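 First, alluvial soil in pots is flooded to 4 cm and mixed seed is sown. Next, plants grow in a greenhouse at 25 to 30° C until the 1-2 leaf stage. Then diluted emulsion is applied onto the water surface at the given g/ha rate, and injury is assessed after 3 weeks.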

black-grass [4] = assay: Test Example 3: weedkilling efficacy through soil treatment; H: black-grass; details: treatment dosage 315 g/ha
Method in brief: as §1

beet [5] = assay: Test Example 3: soil treatment, effect on crop; f: beet; details: treatment dosage 315 g/ha
Method in brief: as §1

corn [6] = assay: Test Example 4: foliar treatment, effect on crop; c: corn; details: treatment dosage 315 g/ha
Method in brief: as §2

soybean [7] = assay: Test Example 3: soil treatment, effect on crop; d: soybean; details: treatment dosage 315 g/ha
Method in brief: as §1

corn [8] = assay: Test Example 3: soil treatment, effect on crop; c: corn; details: treatment dosage 315 g/ha
Method in brief: as §1

chickweed [9] = assay: Test Example 3: weedkilling efficacy through soil treatment; N: chickweed; details: treatment dosage 315 g/ha
Method in brief: as §1

soybean [10] = assay: Test Example 4: foliar treatment, effect on crop; d: soybean; details: treatment dosage 315 g/ha
Method in brief: as §2

green foxtail [11] = assay: Test Example 3: weedkilling efficacy through soil treatment; E: green foxtail; details: treatment dosage 315 g/ha
Method in brief: as §1

redroot pigweed [12] = assay: Test Example 3: weedkilling efficacy through soil treatment; L: redroot pigweed; details: treatment dosage 315 g/ha
Method in brief: as §1

green foxtail [13] = assay: Test Example 4: weedkilling efficacy by foliar treatment; E: green foxtail; details: treatment dosage 315 g/ha
Method in brief: as §2

bulrush [14] = assay: Test Example 2: weedkilling efficacy, growth period weed treatment in the submerged state; B: bulrush; details: treatment dosage 252 g/ha
Method in brief: as §4

wheat [15] = assay: Test Example 3: soil treatment, effect on crop; e: wheat; details: treatment dosage 315 g/ha
Method in brief: as §1

directly sown rice = assay: Test Example 4: foliar treatment, effect on crop; b: directly sown rice; details: treatment dosage 315 g/ha
Method in brief: as §2

black-grass [16] = assay: Test Example 4: weedkilling efficacy by foliar treatment; H: black-grass; details: treatment dosage 315 g/ha
Method in brief: as §2

crabgrass [17] = assay: Test Example 4: weedkilling efficacy by foliar treatment; D: crabgrass; details: treatment dosage 315 g/ha
Method in brief: as §2

Indian mallow [18] = assay: Test Example 4: weedkilling efficacy by foliar treatment; K: Indian mallow; details: treatment dosage 315 g/ha
Method in brief: as §2

crabgrass [19] = assay: Test Example 3: weedkilling efficacy through soil treatment; D: crabgrass; details: treatment dosage 315 g/ha
Method in brief: as §1

redroot pigweed [20] = assay: Test Example 4: weedkilling efficacy by foliar treatment; L: redroot pigweed; details: treatment dosage 315 g/ha
Method in brief: as §2

fig-leafed goosefoot [21] = assay: Test Example 4: weedkilling efficacy by foliar treatment; M: fig-leafed goosefoot; details: treatment dosage 315 g/ha
Method in brief: as §2

beet [22] = assay: Test Example 4: foliar treatment, effect on crop; f: beet; details: treatment dosage 315 g/ha
Method in brief: as §2

chickweed [23] = assay: Test Example 4: weedkilling efficacy by foliar treatment; N: chickweed; details: treatment dosage 315 g/ha
Method in brief: as §2

Indian mallow [24] = assay: Test Example 3: weedkilling efficacy through soil treatment; K: Indian mallow; details: treatment dosage 315 g/ha
Method in brief: as §1

wild oat [25] = assay: Test Example 4: weedkilling efficacy by foliar treatment; G: wild oat; details: treatment dosage 315 g/ha
Method in brief: as §2

Italian ryegrass [26] = assay: Test Example 4: weedkilling efficacy by foliar treatment; I: Italian ryegrass; details: treatment dosage 315 g/ha
Method in brief: as §2

wild oat [27] = assay: Test Example 3: weedkilling efficacy through soil treatment; G: wild oat; details: treatment dosage 315 g/ha
Method in brief: as §1

Italian ryegrass [28] = assay: Test Example 3: weedkilling efficacy through soil treatment; I: Italian ryegrass; details: treatment dosage 315 g/ha
Method in brief: as §1

barnyard grass [29] = assay: Test Example 1: weedkilling efficacy, preemergent weed treatment in the submerged state; A: barnyard grass; details: treatment dosage 252 g/ha
Method in brief: as §3

bulrush [30] = assay: Test Example 1: weedkilling efficacy, preemergent weed treatment in the submerged state; B: bulrush; details: treatment dosage 252 g/ha
Method in brief: as §3

wheat [31] = assay: Test Example 4: foliar treatment, effect on crop; e: wheat; details: treatment dosage 315 g/ha
Method in brief: as §2

transplanted rice = assay: Test Example 1: preemergent weed treatment in the submerged state, effect on crop; a: transplanted rice; details: treatment dosage 252 g/ha
Method in brief: as §3

barnyard grass [32] = assay: Test Example 2: weedkilling efficacy, growth period weed treatment in the submerged state; A: barnyard grass; details: treatment dosage 252 g/ha
Method in brief: as §4

birds-eye speedwell [33] = assay: Test Example 4: weedkilling efficacy by foliar treatment; p: birds-eye speedwell; details: treatment dosage 315 g/ha
Method in brief: as §2

birds-eye speedwell [34] = assay: Test Example 3: weedkilling efficacy through soil treatment; p: birds-eye speedwell; details: treatment dosage 315 g/ha
Method in brief: as §1

Row | Structure (SMILES) | M (fig-leafed goosefoot) weedkilling efficacy grade (fig-leafed goosefoot [1]) | O (catchweed) weedkilling efficacy grade (catchweed) | C (oval-leafed pondweed) weedkilling efficacy grade (oval-leafed pondweed [2]) | C (oval-leafed pondweed) weedkilling efficacy grade (oval-leafed pondweed [3]) | H (black-grass) weedkilling efficacy grade (black-grass [4]) | f (beet) effect on crop grade (beet [5]) | c (corn) effect on crop grade (corn [6]) | d (soybean) effect on crop grade (soybean [7]) | c (corn) effect on crop grade (corn [8]) | N (chickweed) weedkilling efficacy grade (chickweed [9]) | d (soybean) effect on crop grade (soybean [10]) | E (green foxtail) weedkilling efficacy grade (green foxtail [11]) | L (redroot pigweed) weedkilling efficacy grade (redroot pigweed [12]) | E (green foxtail) weedkilling efficacy grade (green foxtail [13]) | B (bulrush) weedkilling efficacy grade (bulrush [14]) | e (wheat) effect on crop grade (wheat [15]) | b (directly sown rice) effect on crop grade (directly sown rice) | H (black-grass) weedkilling efficacy grade (black-grass [16]) | D (crabgrass) weedkilling efficacy grade (crabgrass [17]) | K (Indian mallow) weedkilling efficacy grade (Indian mallow [18]) | other results
1 | CC1=C(c2ccccc2)C(=O)N(C(C)(C)C(=O)Nc2ccnc(Cl)c2)CO1 [B-4-03] | 5 (weed kill ratio 90% or more, (practically complete withering)) | 5 (weed kill ratio 90% or more, (practically complete withering)) | 5 (weed kill ratio 90% or more, (practically complete withering)) | 4 (weed kill ratio 70% or more, less than 90%) | 5 (weed kill ratio 90% or more, (practically complete withering)) | 4 (weed kill ratio 70% or more, less than 90%) | 4 (weed kill ratio 70% or more, less than 90%) | 3 (weed kill ratio 40% or more, less than 70%) | 2 (weed kill ratio 20% or more, less than 40%) | 3 (weed kill ratio 40% or more, less than 70%) | 4 (weed kill ratio 70% or more, less than 90%) | 5 (weed kill ratio 90% or more, (practically complete withering)) | 5 (weed kill ratio 90% or more, (practically complete withering)) | 5 (weed kill ratio 90% or more, (practically complete withering)) | 5 (weed kill ratio 90% or more, (practically complete withering)) | 1 (weed kill ratio 5% or more, less than 20%) | 5 (weed kill ratio 90% or more, (practically complete withering)) | 5 (weed kill ratio 90% or more, (practically complete withering)) | 5 (weed kill ratio 90% or more, (practically complete withering)) | 4 (weed kill ratio 70% or more, less than 90%) | D (crabgrass) weedkilling efficacy grade (crabgrass [19]): 5 (weed kill ratio 90% or more, (practically complete withering)); L (redroot pigweed) weedkilling efficacy grade (redroot pigweed [20]): 3 (weed kill ratio 40% or more, less than 70%); M (fig-leafed goosefoot) weedkilling efficacy grade (fig-leafed goosefoot [21]): 3 (weed kill ratio 40% or more, less than 70%); f (beet) effect on crop grade (beet [22]): 4 (weed kill ratio 70% or more, less than 90%); N (chickweed) weedkilling efficacy grade (chickweed [23]): 1 (weed kill ratio 5% or more, less than 20%); K (Indian mallow) weedkilling efficacy grade (Indian mallow [24]): 3 (weed kill ratio 40% or more, less than 70%); G (wild oat) weedkilling efficacy grade (wild oat [25]): 5 (weed kill ratio 90% or more, (practically complete withering)); I (Italian ryegrass) weedkilling efficacy grade (Italian ryegrass [26]): 5 (weed kill ratio 90% or more, (practically complete withering)); G (wild oat) weedkilling efficacy grade (wild oat [27]): 4 (weed kill ratio 70% or more, less than 90%); I (Italian ryegrass) weedkilling efficacy grade (Italian ryegrass [28]): 5 (weed kill ratio 90% or more, (practically complete withering)); A (barnyard grass) weedkilling efficacy grade (barnyard grass [29]): 5 (weed kill ratio 90% or more, (practically complete withering)); B (bulrush) weedkilling efficacy grade (bulrush [30]): 5 (weed kill ratio 90% or more, (practically complete withering)); e (wheat) effect on crop grade (wheat [31]): 0 (weed kill ratio 5% or less (practically no effect)); a (transplanted rice) effect on crop grade (transplanted rice): 4 (weed kill ratio 70% or more, less than 90%); A (barnyard grass) weedkilling efficacy grade (barnyard grass [32]): 4 (weed kill ratio 70% or more, less than 90%); P (birds-eye speedwell) weedkilling efficacy grade (birds-eye speedwell [33]): 4 (weed kill ratio 70% or more, less than 90%)
2 | CC1=C(c2ccccc2)C(=O)N(C(C)(C)C(=O)Nc2ccnc(F)c2)CO1 [B-4-02] | 5 (weed kill ratio 90% or more, (practically complete withering)) | 5 (weed kill ratio 90% or more, (practically complete withering)) | 5 (weed kill ratio 90% or more, (practically complete withering)) | 4 (weed kill ratio 70% or more, less than 90%) | 5 (weed kill ratio 90% or more, (practically complete withering)) | 3 (weed kill ratio 40% or more, less than 70%) | 4 (weed kill ratio 70% or more, less than 90%) | 1 (weed kill ratio 5% or more, less than 20%) | 4 (weed kill ratio 70% or more, less than 90%) | 4 (weed kill ratio 70% or more, less than 90%) | 4 (weed kill ratio 70% or more, less than 90%) | 5 (weed kill ratio 90% or more, (practically complete withering)) | 5 (weed kill ratio 90% or more, (practically complete withering)) | 5 (weed kill ratio 90% or more, (practically complete withering)) | 5 (weed kill ratio 90% or more, (practically complete withering)) | 1 (weed kill ratio 5% or more, less than 20%) | 5 (weed kill ratio 90% or more, (practically complete withering)) | 5 (weed kill ratio 90% or more, (practically complete withering)) | 5 (weed kill ratio 90% or more, (practically complete withering)) | 3 (weed kill ratio 40% or more, less than 70%) | P (birds-eye speedwell) weedkilling efficacy grade (birds-eye speedwell [34]): 5 (weed kill ratio 90% or more, (practically complete withering)); D (crabgrass) weedkilling efficacy grade (crabgrass [19]): 5 (weed kill ratio 90% or more, (practically complete withering)); L (redroot pigweed) weedkilling efficacy grade (redroot pigweed [20]): 4 (weed kill ratio 70% or more, less than 90%); M (fig-leafed goosefoot) weedkilling efficacy grade (fig-leafed goosefoot [21]): 4 (weed kill ratio 70% or more, less than 90%); N (chickweed) weedkilling efficacy grade (chickweed [23]): 3 (weed kill ratio 40% or more, less than 70%); K (Indian mallow) weedkilling efficacy grade (Indian mallow [24]): 4 (weed kill ratio 70% or more, less than 90%); G (wild oat) weedkilling efficacy grade (wild oat [25]): 5 (weed kill ratio 90% or more, (practically complete withering)); I (Italian ryegrass) weedkilling efficacy grade (Italian ryegrass [26]): 5 (weed kill ratio 90% or more, (practically complete withering)); G (wild oat) weedkilling efficacy grade (wild oat [27]): 5 (weed kill ratio 90% or more, (practically complete withering)); I (Italian ryegrass) weedkilling efficacy grade (Italian ryegrass [28]): 5 (weed kill ratio 90% or more, (practically complete withering)); A (barnyard grass) weedkilling efficacy grade (barnyard grass [29]): 5 (weed kill ratio 90% or more, (practically complete withering)); B (bulrush) weedkilling efficacy grade (bulrush [30]): 5 (weed kill ratio 90% or more, (practically complete withering)); e (wheat) effect on crop grade (wheat [31]): 0 (weed kill ratio 5% or less (practically no effect)); a (transplanted rice) effect on crop grade (transplanted rice): 3 (weed kill ratio 40% or more, less than 70%); A (barnyard grass) weedkilling efficacy grade (barnyard grass [32]): 3 (weed kill ratio 40% or more, less than 70%); P (birds-eye speedwell) weedkilling efficacy grade (birds-eye speedwell [33]): 5 (weed kill ratio 90% or more, (practically complete withering))
